Tests used:
[1] = test system: mice with T. gondii infection; experiment: Survival rate of mice with T. gondii infection; assay type: in vivo; conditions: acute infection; Toxo group died from day seven
Method: All data were expressed as mean ± standard deviation (S.D.) in triplicate. Statistical analyses and graphs were performed using SPSS 16.0 software (SPSS Inc., Chicago, IL, USA) and GraphPad Prism 5.0 (GraphPad Software Inc., San Diego, CA, USA). The method of Kaplan and Meier was used to compare the survival rates of the studied groups. A value of p < 0.05 was considered statistically significant.

T. gondii [2] = experiment: In vivo anti-T. gondii activity, peritoneal tachyzoite count by Trypan Blue; design: species or system Toxoplasma gondii; conditions: peritoneal cavity of KM female mice, i.p. 2 × 10^3 tachyzoites; 100 mg/kg oral once a day for 6 days; Toxo 12.28 ± 0.39
From the text: (§1) For the in vivo study, KM female mice were divided into groups consisting of six animals each and then intraperitoneally injected with 2 × 10^3 tachyzoites. […] On the last day, heart blood samples were collected after anesthesia to separate the serum, and after mice were sacrificed by cervical dislocation, mice were dissected to obtain organs and tissues. The tachyzoites were harvested from mice peritoneal cavities to determine the level of tachyzoite proliferation. The peritoneal fluid was collected twice; the first time, it was centrifuged at 500 rpm for 10 min, then the supernatant was centrifuged at 2500 rpm for 20 min, discarded, and the worm precipitate was collected at the bottom, and mixed with an appropriate amount of physiological saline. A total of 10 μL of T. gondii suspension was mixed with 10 μL of 4% Trypan blue staining solution in a 1.5 mL centrifuge tube.

T. gondii [3] = experiment: Giemsa staining: cell infection rate and intracellular tachyzoites in IEC-6 cells; assay type: cell-based, Toxoplasma gondii; conditions: IEC-6 cells infected 3 h, drug 12 h at the IC50 value of the cells
Method: (§2) Anti-T. gondii activity and cytotoxicity of indole derivatives in vitro were evaluated by MTT assay (Solarbio, Beijing, China) using a slightly modified version of the procedure of Shang et al.. IEC-6 cells were seeded onto the 96-well plates (2 × 10^3/well) for 24 h to obtain the full monolayer, and then the host cells were infected with T. gondii (parasite: cell = 3:1) in complete medium. After 24 h, cells were washed to remove any extra parasites and then incubated with different concentrations (20, 200, 500 and 1000 μm) of […]. […] After 24 h of treatment, MTT solution was added directly to the culture wells and then incubated for 4 h at 37 °C. The optical absorbance was measured at a wavelength of 548 nm using a microplate reader (SpectraMax M2, Molecular Devices, Sunnyvale, CA, USA). Giemsa staining was used to observe the changes in cell morphology and the proliferation of T. gondii-infected cells. IEC-6 (1 × 10^5 cells/well) was inoculated into 24-well plates containing round coverslip, and after the cells were attached to the wall, T. gondii (3 × 10^5 cells/well) was added to infect the cells for 3 h. After the culture medium was discarded, PBS was added to remove the uninvaded tachyzoites. […] After discarding the supernatant, the cells were washed with PBS and completely aspirated, and then fixed by adding 0.5 mL of methanol for 3 min. Giemsa staining solution was added and shaken slightly to make the staining uniform. Coverslips were rinsed with distilled water to replace the staining solution, and finally, the slices were sealed with neutral gum and air-dried.

[4] = test system: small intestine of mice with T. gondii infection; experiment: Small intestine and serum biochemical parameters (GSH, MDA, NO, DAO) of T. gondii-infected mice; assay type: in vivo; conditions: 100 mg/kg oral once a day for 6 days
From the text: as §1
The GSH was measured according to the method in [58]. The intestine homogenate was mixed with half volume trichloroacetic acid (20%, w/v) and centrifuged at 4000 rpm for 10 min. Then, phosphate buffer (phosphate 0.3 mol/L, pH 7.5) and 5,5-dithio-bis-(2-nitrobenzoic acid) (0.04%, w/v) were added to the separated supernatant and mixed thoroughly. After 5 min at room temperature, the absorbance was measured at 412 nm.
MDA was measured by the standard method with minor modifications. The small intestine homogenate supernatant was mixed with thiobarbituric acid (0.5%, w/v) and heated in boiling water bath for 1 h, then cooled quickly and centrifuged at 6000 rpm for 10 min; the absorbance of pink colored supernatant was measured at 532 nm. Tetraethoxypropane replaced the intestine homogenate in the standard sample.
The Greiss method was used to determine the NO content in small intestine tissues and cells. The above small intestine tissue homogenate or IEC-6 cell supernatant was centrifuged at 4 °C and 1500 rpm for 15 min, and the absorbance was measured at 540 nm by adding equal amounts of Griess A and B reagents to the supernatant. The standard used in the NO standard curve was sodium nitrite, and the NO content in the samples was calculated by substituting the absorbance values of the samples into the regression equation of the standard curve.
The DAO evaluation experimental method of Xin Y et al. was adopted, in which mouse heart blood was taken from a 1.5 mL centrifuge tube and centrifuged at 4 °C and 3000× g for 10 min, and the upper layer of serum was taken for measurement. Another 1.5 mL tube was taken and 600 μL of phosphate buffer, 20 μL of horseradish peroxidase, 20 μL of dianisidine dihydrochloride hydrochloride, and 20 μL of 1,5-pentanediamine hydrochloride were added. After that, 100 μL of serum samples to be tested was added, mixed well and heated at 37 °C for 18 h. The absorbance was measured at 436 nm. […]. A total of 100 μL of distilled water was used in the blank tube instead of serum, and the standard used in the standard curve was diamine oxidase. The absorbance value of the experimental samples was substituted into the regression equation of the standard curve to calculate the content of DAO in the serum samples.

IEC-6 cells = experiment: MTT cytotoxicity assay in IEC-6 cells; assay type: cell-based; conditions: MTT; concentration required to reduce IEC-6 cell growth by 50%; 24 h treatment; read-out: IC50 in IEC-6 Cells
Method: as §2

T. gondii [5] = experiment: MTT anti-T. gondii activity in T. gondii-infected IEC-6 cells; assay type: cell-based, Toxoplasma gondii; conditions: MTT; concentration required to reduce T. gondii-infected IEC-6 cell growth by 50%; 24 h treatment; read-out: IC50 in T. gondii
Method: as §2

[6] = Small intestine histology and pathology scoring of T. gondii-infected mice; assay type: in vivo; conditions: 100 mg/kg oral once a day for 6 days
From the text: as §1
The histology research includes apparent pathological change score, H&E staining and histopathological scores of tissue, as shown in Table 4 and Table 5. In detail, the obtained small intestine tissues were fixed in formalin solution and embedded in paraffin wax after gradual dehydration with different concentrations of ethanol. The paraffin fast was sectioned to a thickness of 5 μm, rehydrated and stained with hematoxylin and eosin, respectively, and finally permeabilized with xylene and sealed with neutral gum. A light microscope was used to observe and collect pictures, and the degree of damage to the small intestinal tissues was assessed according to Chiu’s six-grade scale.

## Spiramycin [Spy, reference compound]
[1]
  survival of mice with T. gondii infection: extended the survival time
T. gondii [2]
  Number of Tachyzoites: 9.22 ± 1.73 ×10^6
T. gondii [3]; Toxo group 49.2%
  cell infection rate: 27.7%
T. gondii [3]; Toxo group 254
  number of intracellular tachyzoites: 173
[4]
  MDA level in small intestine tissue: effective inhibition of the MDA increase
IEC-6 cells
  IC50: 246 ± 5.9 µM
T. gondii [5]
  IC50: 219 ± 6 µM
[6]
  intestinal barrier damage induced by T. gondii infection (histology, H&E): showed no abnormalities in the small intestinal tissues

— publication PMC11547840, “The Intestinal Barrier Protective Effect of Indole Aldehyde Derivatives on Acute Toxoplasma gondii Infection” (Molecules, 2024)
